Data taken from US7445931B2, “Compositions and methods for enrichment of neural stem cells using ceramide analogs” (Bresagen, Inc., priority 2002, dated 2008).

System: differentiating ES cells (NPs), PAR-4
Assay: S18-induced apoptosis (TUNEL) in NPs after PAR-4 antisense knockdown or PAR-4-RFP overexpression
Format: cell-based, mouse
Procedure: For construction of PAR-4-REP cDNA, RT-PCR was performed with the oligonucleotide primer pair sense 5′atggcgaccggcggctatcg3′ (SEQ ID NO:14) and antisense 5′ctaccttgtcagctgcccaacaac3′(SEQ ID NO:15), using the first strand cDNA generated from embryoid bodies (EB8 stage) as template for the amplification reaction. The primers were endowed with the restriction enzyme cleaving sites Eco47III (sense) and SaII (antisense) for ligation of the PAR-4 specific amplification product into the multiple cloning site of HcRFP, a vector that encodes a far-red shifted variant of red fluorescent protein (Clontech). Differentiating ES cells at the NP1 stage were transfected with the PAR-4-RFP construct using the lipofectamine 2000 procedure according to the manufacturer's instructions (Invitrogen). The transfected cells were incubated in DMEM F12 (50/50), supplemented with 1×N2 and 20 ng/ml FGF-2, and the TUNEL assay or immunostainings were performed after 48 hours of incubation and NP formation. For depletion of ceramide, differentiating ES cell were incubated with 25 μM fumonisin B1 or 50 nM myriocin 48 hours prior to transfection with the PAR-4-RFP vector, and the inhibitor maintained in the medium throughout the post-transfection period. For induction of apoptosis, the novel ceramide analog S18 (40-100 μM), N-acetyl sphingosine (C2-ceramide, 10-30 μM), or natural ceramide isolated from EBs (0.5-1.5 μM) was added 48 hours after transfection with the PAR-4-RFP cDNA, and the degree of apoptosis quantified after 15-20 hours using TUNEL assays with paraformaldehyde-fixed cells as described above.
Endogenous expression of PAR-4 was suppressed by transfection of differentiating ES cells at the NP1 stage with 2 nmoles (per well in 24 wells plate) of the morpholino-based antisense oligonucleotide 5′cgatagccgccggtcgccatgttcc3′(SEQ ID NO:16) (see Guo et al., 1998, Nature Med., 4:957-962; Guo et al., 2001 Brain Res, 903:13-25) following the instructions of the manufacturer (GeneTools) in 0.5 ml of serum-free DMEM/F-12, 1XN2 supplemented with 20 ng/ml FGF-2. For induction of apoptosis, the novel ceramide analog S18 (40-100), N-acetyl sphingosine (C2 ceramide, […], or natural ceramide isolated from EBs (0.5-1.5 μM) was added 48 hours after transfection with the anti-PAR-4 morpholino, and the degree of apoptosis quantified after 15-20 hours using TUNEL assays with paraformaldehyde-fixed cells as described above.

SMILES: CCCCCCCC/C=C\CCCCCCCC(=O)NC(CO)CO [S18, N-(2-hydroxy-1-(hydroxymethyl)ethyl)-oleoylamide]
- ceramide analog-induced apoptosis in untransfected or mock (RFP)-transfected cells (40 μM S18): no or only a low degree
- number of apoptotic cells (80 μM S18, control morpholino-transfected and untransfected NPs): more than 80%
- apoptosis in PAR-4-RFP transfected cells (myriocin-treated ES cells transfected at NP1 stage, 40 μM S18): apoptosis was observed
